What was measured:
[1] = Induction of cell cycle arrest in mouse BaF3 cells harboring CCDC6-RET G810C mutant assessed as accumulation of cells at G2/M phase at 30 nM incubated for 24 hrs by propidium iodide staining based analysis (reference value: 34.75%); format: functional
[2] = Induction of cell cycle arrest in mouse BaF3 cells harboring CCDC6-RET G810C mutant assessed as accumulation of cells at G0/G1 phase at 10 nM incubated for 24 hrs by propidium iodide staining based analysis (reference value: 52.11%); format: functional
[3] = Induction of apoptosis in mouse BaF3 cells harboring CCDC6-RET G810R mutant assessed as late apoptotic cells at 10 nM incubated for 48 hrs by Annexin V-PE staining based flow cytometry analysis (Rvb =3.21%); format: functional
[4] = Induction of apoptosis in mouse BaF3 cells harboring CCDC6-RET assessed as viable cells at 300 nM incubated for 48 hrs by Annexin V-PE staining based flow cytometry analysis (Rvb =91.16%); format: functional; details: read-out: Activity
[5] = Induction of cell cycle arrest in mouse BaF3 cells harboring CCDC6-RET G810C mutant assessed as accumulation of cells at S phase at 100 nM incubated for 24 hrs by propidium iodide staining based analysis (reference value: 12.47%); format: functional
[6] = Induction of cell cycle arrest in mouse BaF3 cells harboring CCDC6-RET G810R mutant assessed as accumulation of cells at G0/G1 phase at 300 nM incubated for 24 hrs by propidium iodide staining based analysis (reference value: 52.63%); format: functional
[7] = Induction of cell cycle arrest in mouse BaF3 cells harboring CCDC6-RET G810R mutant assessed as accumulation of cells at G0/G1 phase at 30 nM incubated for 24 hrs by propidium iodide staining based analysis (reference value: 52.63%); format: functional
[8] = Induction of apoptosis in mouse BaF3 cells harboring CCDC6-RET assessed as early apoptotic cells at 100 nM incubated for 48 hrs by Annexin V-PE staining based flow cytometry analysis (Rvb =6.21%); format: functional
[9] = target: T1, Ephrin type-B receptor 4 (Homo sapiens, UniProt P54760); assay: Inhibition of EPHB4 (unknown origin)
T1 sequence (P54760 whole entry): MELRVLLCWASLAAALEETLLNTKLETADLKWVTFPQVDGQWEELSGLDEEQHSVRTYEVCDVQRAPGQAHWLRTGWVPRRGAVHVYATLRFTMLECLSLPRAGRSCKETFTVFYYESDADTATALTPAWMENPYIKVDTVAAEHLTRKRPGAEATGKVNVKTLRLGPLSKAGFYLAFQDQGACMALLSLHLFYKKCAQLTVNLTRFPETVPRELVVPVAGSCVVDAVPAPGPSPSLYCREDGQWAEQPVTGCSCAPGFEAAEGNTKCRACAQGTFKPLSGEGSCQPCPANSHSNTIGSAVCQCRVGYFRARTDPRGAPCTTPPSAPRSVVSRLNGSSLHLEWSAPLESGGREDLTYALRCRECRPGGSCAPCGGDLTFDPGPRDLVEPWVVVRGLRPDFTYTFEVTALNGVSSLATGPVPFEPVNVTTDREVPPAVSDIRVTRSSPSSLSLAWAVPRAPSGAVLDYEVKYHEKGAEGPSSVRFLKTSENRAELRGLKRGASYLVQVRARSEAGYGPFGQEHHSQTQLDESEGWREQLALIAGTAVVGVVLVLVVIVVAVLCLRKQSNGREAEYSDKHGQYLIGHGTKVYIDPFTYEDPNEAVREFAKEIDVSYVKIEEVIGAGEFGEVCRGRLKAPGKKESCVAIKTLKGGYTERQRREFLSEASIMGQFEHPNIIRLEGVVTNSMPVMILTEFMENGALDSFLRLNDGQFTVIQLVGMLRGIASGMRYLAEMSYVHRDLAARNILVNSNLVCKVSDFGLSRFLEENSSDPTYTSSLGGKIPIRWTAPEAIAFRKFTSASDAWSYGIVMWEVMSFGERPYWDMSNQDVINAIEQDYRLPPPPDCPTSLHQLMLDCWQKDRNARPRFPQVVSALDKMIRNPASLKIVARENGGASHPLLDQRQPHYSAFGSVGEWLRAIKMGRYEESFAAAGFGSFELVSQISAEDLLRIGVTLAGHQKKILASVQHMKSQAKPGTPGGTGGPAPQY

[10] = tested on: BaF3; assay: Inhibition of SHC phosphorylation in mouse BaF3 cells harboring CCDC6-RET G810C mutant incubated for 12 hrs by Western blotting analysis; format: cell-based; details: dose <= 300.0 nM
[11] = Induction of apoptosis in mouse BaF3 cells harboring CCDC6-RET G810C mutant assessed as necrotic cells at 300 nM incubated for 48 hrs by Annexin V-PE staining based flow cytometry analysis (Rvb =0.48%); format: functional
[12] = Induction of apoptosis in mouse BaF3 cells harboring CCDC6-RET G810C mutant assessed as late apoptotic cells at 300 nM incubated for 48 hrs by Annexin V-PE staining based flow cytometry analysis (Rvb =4.30%); format: functional
[13] = Induction of apoptosis in mouse BaF3 cells harboring CCDC6-RET G810R mutant assessed as necrotic cells at 100 nM incubated for 48 hrs by Annexin V-PE staining based flow cytometry analysis (Rvb =0.30%); format: functional
[14] = Induction of cell cycle arrest in mouse BaF3 cells harboring CCDC6-RET G810R mutant assessed as accumulation of cells at S phase at 10 nM incubated for 24 hrs by propidium iodide staining based analysis (reference value: 13.66%); format: functional
[15] = Induction of apoptosis in mouse BaF3 cells harboring CCDC6-RET assessed as early apoptotic cells at 30 nM incubated for 48 hrs by Annexin V-PE staining based flow cytometry analysis (Rvb =6.21%); format: functional
[16] = Induction of apoptosis in mouse BaF3 cells harboring CCDC6-RET assessed as viable cells at 30 nM incubated for 48 hrs by Annexin V-PE staining based flow cytometry analysis (Rvb =91.16%); format: functional; details: read-out: Activity
[17] = Induction of apoptosis in mouse BaF3 cells harboring CCDC6-RET G810C mutant assessed as early apoptotic cells at 100 nM incubated for 48 hrs by Annexin V-PE staining based flow cytometry analysis (Rvb =8.74%); format: functional
[18] = Induction of apoptosis in mouse BaF3 cells harboring CCDC6-RET G810R mutant assessed as necrotic cells at 300 nM incubated for 48 hrs by Annexin V-PE staining based flow cytometry analysis (Rvb =0.30%); format: functional
[19] = target: T2, BDNF/NT-3 growth factors receptor (Homo sapiens, UniProt Q16620); assay: Inhibition of TRKB (unknown origin)
Target sequence in this assay (Q16620 whole entry): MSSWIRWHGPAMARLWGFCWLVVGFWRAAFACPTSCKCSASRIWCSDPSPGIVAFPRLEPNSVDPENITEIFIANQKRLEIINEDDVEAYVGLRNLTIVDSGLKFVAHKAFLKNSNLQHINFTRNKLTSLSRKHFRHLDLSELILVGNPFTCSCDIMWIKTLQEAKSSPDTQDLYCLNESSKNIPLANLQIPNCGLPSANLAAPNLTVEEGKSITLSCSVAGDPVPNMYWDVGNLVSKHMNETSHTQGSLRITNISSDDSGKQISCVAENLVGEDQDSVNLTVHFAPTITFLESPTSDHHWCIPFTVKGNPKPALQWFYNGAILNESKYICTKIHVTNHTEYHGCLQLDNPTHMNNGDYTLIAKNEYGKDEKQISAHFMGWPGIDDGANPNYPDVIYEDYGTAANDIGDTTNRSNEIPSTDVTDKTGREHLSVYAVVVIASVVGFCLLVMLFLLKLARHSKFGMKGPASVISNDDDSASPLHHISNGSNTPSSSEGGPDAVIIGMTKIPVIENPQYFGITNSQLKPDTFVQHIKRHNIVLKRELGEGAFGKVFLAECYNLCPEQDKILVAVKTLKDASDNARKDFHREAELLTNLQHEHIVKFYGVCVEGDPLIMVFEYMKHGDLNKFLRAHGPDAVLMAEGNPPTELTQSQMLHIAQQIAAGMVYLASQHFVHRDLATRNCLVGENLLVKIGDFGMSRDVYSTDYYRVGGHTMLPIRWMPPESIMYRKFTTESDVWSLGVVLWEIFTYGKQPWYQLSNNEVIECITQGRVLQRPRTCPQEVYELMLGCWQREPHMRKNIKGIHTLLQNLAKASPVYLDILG

[20] = target: T2, BDNF/NT-3 growth factors receptor; assay: Inhibition of TRKB (unknown origin) at 1 uM relative to control
Target sequence in this assay (Q16620 32-822 limits assumed): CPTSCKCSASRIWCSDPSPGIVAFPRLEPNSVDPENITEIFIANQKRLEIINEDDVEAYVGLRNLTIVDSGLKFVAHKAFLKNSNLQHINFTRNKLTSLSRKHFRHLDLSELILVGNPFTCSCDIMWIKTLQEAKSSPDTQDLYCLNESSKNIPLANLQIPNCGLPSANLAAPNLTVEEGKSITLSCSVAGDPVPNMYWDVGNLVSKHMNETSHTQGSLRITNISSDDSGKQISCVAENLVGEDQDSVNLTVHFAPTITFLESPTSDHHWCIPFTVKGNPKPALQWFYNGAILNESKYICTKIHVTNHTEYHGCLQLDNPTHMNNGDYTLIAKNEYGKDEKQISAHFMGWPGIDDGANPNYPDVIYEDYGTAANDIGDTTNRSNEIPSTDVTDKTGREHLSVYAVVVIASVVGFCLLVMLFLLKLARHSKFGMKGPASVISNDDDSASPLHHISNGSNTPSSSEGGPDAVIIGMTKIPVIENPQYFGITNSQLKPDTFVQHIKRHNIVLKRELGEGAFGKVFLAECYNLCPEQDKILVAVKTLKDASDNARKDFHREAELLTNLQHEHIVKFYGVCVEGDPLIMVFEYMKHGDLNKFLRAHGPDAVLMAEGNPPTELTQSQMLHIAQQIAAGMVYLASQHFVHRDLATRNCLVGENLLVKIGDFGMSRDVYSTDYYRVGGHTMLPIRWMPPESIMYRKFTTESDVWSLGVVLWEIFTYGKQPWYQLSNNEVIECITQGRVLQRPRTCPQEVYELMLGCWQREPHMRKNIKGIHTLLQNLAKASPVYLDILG

[21] = Induction of cell cycle arrest in mouse BaF3 cells harboring CCDC6-RET assessed as accumulation of cells at G2/M phase at 300 nM incubated for 24 hrs by propidium iodide staining based analysis (reference value: 34.11%); format: functional
[22] = Induction of cell cycle arrest in mouse BaF3 cells harboring CCDC6-RET G810R mutant assessed as accumulation of cells at S phase at 100 nM incubated for 24 hrs by propidium iodide staining based analysis (reference value: 13.66%); format: functional

Compound `COc1cncc(-c2cn[nH]c2/C=C/c2ccc(NC(=O)Nc3cc(C(C)(C)C(F)(F)F)on3)c(Cl)c2)c1` has an Activity [1] of 30.79%, an Activity [2] of 52.74% and an Activity [3] of 3.29%. For the same compound, the viability at 0.3 µM [4] was 13.9%, the Activity [5] was 6.84% and the Activity [6] was 78.85%. It also gave an Activity [7] of 53.02%, an Activity [8] of 74.7% and an IC50 [9] of 36.4 nM. The inhibition [10] was “Dose-dependent-effect”, the Activity [11] was 0.03% and the Activity [12] was 0.31%. For the same compound, the Activity [13] was 0.79%, the Activity [14] was 13.31% and the Activity [15] was 22.34%. For the same compound, the viability at 0.03 µM [16] was 76.8%, the Activity [17] was 37.84% and the Activity [18] was 0.07%. It also gave an IC50 [19] of 86.7 nM, an inhibition [20] of 100% and an Activity [21] of 12.51%. The Activity [22] was 12.78%.
